Laboratory results from ChEMBL document CHEMBL1201862, “PubChem BioAssay data set” (2004).
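Values below derive from 48-hour exposures of cells grown in 96-well plates, with endpoints linearly interpolated between the two concentrations bracketing the appropriate inhibition level. GI50 = concentration required for 50% inhibition of growth.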 Active and inactive are the calls of the source. Cut-off read from the data, not from the text of the source: active = GI50 up to about 1.1 µM and inactive = higher. Numbered stars: 1 amine (or outer) side, 2 acyl side, 3 side chain; on linkers, the order of the positions; unused ones are H or OH. Square brackets hold non-standard residues; d marks the D form. Peptide text beside a SMILES is read from it. * marks the point of attachment. X30 = CC(=O)N(C)SCC(N[*:1])C(=O)[*:2]; Cbz = O=C(OCc1ccccc1)*; Bn = c1ccc(C*)cc1

Legend:
Test in all cases: inhibition of tumour cell growth, NCI panel, 48 h
UACC-62 = test system: UACC-62
HCT-15 = test system: HCT-15
A549 = test system: A549
HOP-92 = test system: HOP-92
Hs-578T = test system: Hs-578T
MDA-N = test system: MDA-N
NCI-H23 = test system: NCI-H23
BT-549 = test system: BT-549
LOX IMVI = test system: LOX IMVI
SK-MEL-28 = test system: SK-MEL-28
HOP-62 = test system: HOP-62
RXF 393 = test system: RXF 393
T47D = test system: T47D
CAKI-1 = test system: CAKI-1
SNB-19 = test system: SNB-19
786-0 = test system: 786-0
HCT-116 = test system: HCT-116
NCI/ADR-RES = test system: NCI/ADR-RES
OVCAR-8 = test system: OVCAR-8
U-251 = test system: U-251

| Compound | GI50 (UACC-62) | GI50 (HCT-15) [µM] | GI50 (A549) | GI50 (HOP-92) | GI50 (Hs-578T) | GI50 (MDA-N) | GI50 (NCI-H23) | GI50 (BT-549) | GI50 (LOX IMVI) | GI50 (SK-MEL-28) | GI50 (HOP-62) | GI50 (RXF 393) | GI50 (T47D) | GI50 (CAKI-1) | GI50 (SNB-19) | GI50 (786-0) | GI50 (HCT-116) | GI50 (NCI/ADR-RES) | GI50 (OVCAR-8) | GI50 (U-251) |
| --- | --- | --- | --- | --- | --- | --- | --- | --- | --- | --- | --- | --- | --- | --- | --- | --- | --- | --- | --- | --- |
| COc1ccc(C)cc1Nc1nnc(-c2ccccc2N)s1 | 37.3 µM (inactive) | 45.2 | 47.4 µM (inactive) | 21.3 µM (inactive) | 36.2 µM (inactive) | 28.9 µM (inactive) | 34.3 µM (inactive) | 62.7 µM (inactive) | 47.1 µM (inactive) | 53.3 µM (inactive) | 44.7 µM (inactive) | 55.1 µM (inactive) | 49.2 µM (inactive) | 28.4 µM (inactive) | > 100 µM (inactive) | 51.2 µM (inactive) | 37.3 µM (inactive) | 34.8 µM (inactive) | 35.7 µM (inactive) | – |
| CC(C)C[C@H](NC(=O)CCc1ccccc1)B(O)O | 14.8 µM (inactive) | 17.3 | 35.4 µM (inactive) | 29.4 µM (inactive) | 5.78 µM (inactive) | 2.49 µM (inactive) | 16.5 µM (inactive) | 17.5 µM (inactive) | 4.63 µM (inactive) | 11 µM (inactive) | 16.8 µM (inactive) | 5.66 µM (inactive) | 18.7 µM (inactive) | 5.08 µM (inactive) | 15.4 µM (inactive) | 12.3 µM (inactive) | 5.87 µM (inactive) | 22.7 µM (inactive) | 19.7 µM (inactive) | 31.4 µM (inactive) |
| c1cc2c(cc1C1=NCCN1)c1cc(C3=NCCN3)ccc1n2CC1CCCCC1 | – | > 100 | 19.1 µM (inactive) | 8 µM (inactive) | 6.19 µM (inactive) | 23.6 µM (inactive) | 17.1 µM (inactive) | 18.5 µM (inactive) | 16.3 µM (inactive) | 10.4 µM (inactive) | 23.8 µM (inactive) | 39.5 µM (inactive) | 19.1 µM (inactive) | > 100 µM (inactive) | 5.9 µM (inactive) | 19.4 µM (inactive) | 12.9 µM (inactive) | > 100 µM (inactive) | 25.4 µM (inactive) | 6.58 µM (inactive) |
| O=C1/C(=C/C=C/c2ccccc2)N=C(c2ccccc2)N1c1ccc(S(=O)(=O)Nc2nccs2)cc1 | 18.2 µM (inactive) | 24.4 | 31.8 µM (inactive) | 45.9 µM (inactive) | 37.8 µM (inactive) | 27.7 µM (inactive) | 21.3 µM (inactive) | 19.8 µM (inactive) | 21.8 µM (inactive) | – | 39.3 µM (inactive) | 13.2 µM (inactive) | 27.6 µM (inactive) | 65.9 µM (inactive) | 37.2 µM (inactive) | 34.8 µM (inactive) | 29.6 µM (inactive) | > 100 µM (inactive) | 29.3 µM (inactive) | 17.9 µM (inactive) |
| CC(=O)N(C)SCC(NC(=O)C(Cc1ccccc1)NC(=O)OCc1ccccc1)C(=O)NC(Cc1ccccc1)C(=O)NC(Cc1c[nH]c2ccccc12)C(=O)NC(CCCCNC(=O)OCc1ccccc1)C(=O)NC(C(=O)NC(CSN(C)C(C)=O)C(=O)NC(C(N)=O)C(C)OCc1ccccc1)C(C)OCc1ccccc1 (stereo unspecified) (Cbz-F[X30]FWK(Cbz)T(Bn)[X30]T(Bn)-NH2; configuration not given here) | > 100 µM (inactive) | > 100 | > 100 µM (inactive) | 72.1 µM (inactive) | > 100 µM (inactive) | > 100 µM (inactive) | > 100 µM (inactive) | > 100 µM (inactive) | 86.5 µM (inactive) | > 100 µM (inactive) | > 100 µM (inactive) | > 100 µM (inactive) | > 100 µM (inactive) | – | > 100 µM (inactive) | > 100 µM (inactive) | > 100 µM (inactive) | > 100 µM (inactive) | > 100 µM (inactive) | 70.5 µM (inactive) |
